Test results as given in patent US4492650A, “A54556 Antibiotics and process for production thereof” (Eli Lilly and Company, priority 1982, dated 1985).
In brackets after ≈: the same amount, converted by molar mass. Several values for one entry are separate records, joined by “and”; a condition that tells them apart may be missing. Equal values may be shown once. Read-outs that look alike come from different tables or passages of the source. Bridge positions count the residues as written; N and C are the ends. Square brackets hold non-standard residues; d marks the D form. Peptide text beside a SMILES is read from it. * marks the point of attachment. ξ: configuration not given here. Octatrienoyl(2E,4E,6E) = C/C=C/C=C/C=C/C(=O)*; ξPro(4ξ-Me) = CC1CNC(C(=O)O)C1; X2 = CCC/C=C/C=C/C(=O)*; NMeA = CN[CH](C)C(=O)O

Assays:
[1] = tested on: Culture A54556; test: Sensitivity of Culture A54556 to antibiotics, sensitivity discs on ISP medium No. 2 agar; assay type: cell-based, Streptomyces hawaiiensis NRRL 15010; note: key: +: sensitive, zones of inhibition; -: resistant, no zones of inhibition
Experimental: The sensitivity of Culture A54556 to several antibiotics at specific concentrations was determined with sensitivity discs padded onto the surface of plates containing ISP medium No. 2 agar seeded with 2% inoculum of Culture A54556.

[2] = tested on: Clostridium perfringens 81; test: microbe, parasite or virus in culture; assay type: cell-based
[3] = tested on: Streptococcus pyogenes (Group A) C203; conditions: second test, Table 13
[4] = tested on: anaerobic bacteria; test: Activity against anaerobic bacteria; assay type: cell-based; conditions: agar-dilution method
[5] = tested on: Peptostreptococcus anaerobius 1428; test: MIC, agar-dilution method; assay type: cell-based
[6] = Electrometric titration; assay type: physicochemical; conditions: 66 percent dimethylformamide in water
Excerpt: Antibiotic A54556 factor A is a tan, amorphous solid. […] As determined by electron impact and field desorption mass spectrometry, A54556 factor A has a molecular weight of 718.

[7] = tested on: Staphylococcus aureus V41; conditions: second test, Table 13, benzylpenicillin resistant
[8] = tested on: Peptococcus prevoti 1281; test: MIC, agar-dilution method; assay type: cell-based
[9] = tested on: Streptococcus sp. (Group D) X66; test: Disc-plate sensitivity; assay type: cell-based; conditions: second test, Table 13; for Zone diameter: listed as B; for zone of inhibition at 300 µg/disc / zone of inhibition at 30 µg/disc: Streptococcus; for zone of inhibition at 30 µg/disc: read-out: Zone diameter, 30 mcg./disc
[10] = tested on: Streptococcus pneumoniae Park I; conditions: second test, Table 13
[11] = tested on: Fusobacterium symbiosum 1470; test: MIC, agar-dilution method; assay type: cell-based
[12] = tested on: experimental bacterial infections; test: In vivo antimicrobial activity against experimental bacterial infections; conditions: mice, subcutaneously
Experimental: (§1) When two doses of test compound were administered subcutaneously to mice in illustrative infections, the activity is measured as an ED50 value [effective does in mg./kg. to protect fifty percent of the test animals: See Warren Wick et al., J. Bacteriol. 81, 233-235 (1961)]. The ED50 values for these antibiotic A54556 factors are recorded in Table 15, which follows.

[13] = tested on: Bacteroides vulgatis 1211; test: MIC, agar-dilution method; assay type: cell-based
[14] = tested on: Eubacterium aerofaciens 1235; test: MIC, agar-dilution method; assay type: cell-based; conditions: Collinsella aerofaciens
Excerpt: (§2) Antibiotic A54556 factors A, B, C, D, E, F, G, and H have been tested and found to be active against a number of anaerobic bacteria, as recorded in Table 14, which follows, the MIC values having been determined by the agar-dilution method.

[15] = tested on: Peptostreptococcus intermedius 1264; test: MIC, agar-dilution method; assay type: cell-based
Excerpt: as §2

[16] = tested on: Bacteroides melaninogenicus 1856/28; test: MIC, agar-dilution method; assay type: cell-based; conditions: Prevotella intermedia
Excerpt: as §2

[17] = tested on: Bacteroides fragilis 1877; test: MIC, agar-dilution method; assay type: cell-based
Excerpt: as §2

[18] = tested on: Bacteroides melaninogenicus 2736; test: MIC, agar-dilution method; assay type: cell-based
Excerpt: as §2

[19] = tested on: Clostridium septicum 1128; test: MIC, agar-dilution method; assay type: cell-based
Excerpt: as §2

[20] = tested on: Clostridium difficile 2994; test: MIC, agar-dilution method; assay type: cell-based; conditions: Clostridioides difficile
Excerpt: as §2

[21] = tested on: Fusobacterium necrophorum 6054A; test: MIC, agar-dilution method; assay type: cell-based
Excerpt: as §2

[22] = tested on: Bacteroides thetaiotaomicron 1438; test: MIC, agar-dilution method; assay type: cell-based
Excerpt: as §2

[23] = tested on: Propionibacterium acnes 79; test: MIC, agar-dilution method; assay type: cell-based; conditions: Cutibacterium acnes
Excerpt: as §2

[24] = tested on: Bacteroides fragilis 111; test: MIC, agar-dilution method; assay type: cell-based
Excerpt: as §2

[25] = tested on: Bacteroides fragilis 1936B; test: MIC, agar-dilution method; assay type: cell-based
Excerpt: as §2

[26] = tested on: Peptococcus asaccharolyticus 1302; test: MIC, agar-dilution method; assay type: cell-based; conditions: Peptoniphilus asaccharolyticus
[27] = tested on: Staphylococcus aureus 3055; conditions: second test, Table 13, benzylpenicillin-susceptible
[28] = tested on: Staphylococcus epidermidis EPI1; conditions: second test, Table 13
[29] = tested on: Bacteroides corrodens 1874; test: MIC, agar-dilution method; assay type: cell-based; conditions: Eikenella corrodens
[30] = tested on: S. pyogenes; test: In vivo protection against experimental bacterial infection in mice; conditions: Streptococcus pyogenes, sc, two doses subcutaneously
Experimental: as §1

SMILES: CC(=O)OCC1=C(C(=O)O)N2C(=O)[C@@H](NC(=O)Cc3cccs3)[C@H]2SC1 [Cephalothin]
- Antibiotic Sensitivity of Culture A54556 ([1]; 30 mcg. disc): -

SMILES: O=C(N[C@H](CO)[C@H](O)c1ccc([N+](=O)[O-])cc1)C(Cl)Cl [Chloromycetin (CAP), Chloromycetin]
- Antibiotic Sensitivity of Culture A54556 ([1]; 30 mcg. disc): trace

SMILES: CC[C@H]1OC(=O)[C@H](C)[C@@H](O[C@H]2C[C@@](C)(OC)[C@@H](O)[C@H](C)O2)[C@H](C)[C@@H](O[C@@H]2O[C@H](C)C[C@H](N(C)C)[C@H]2O)[C@](C)(O)C[C@@H](C)C(=O)[C@H](C)[C@@H](O)[C@]1(C)O [Erythromycin]
- Antibiotic Sensitivity of Culture A54556 ([1]; 15 mcg. disc): -

SMILES: C/C=C/C=C/C=C/C(=O)NC(Cc1ccccc1)C(=O)NC1COC(=O)C2CCCN2C(=O)C(C)NC(=O)C(C)N(C)C(=O)C2CCCN2C1=O (stereo not shown) [Factor B] ({Octatrienoyl(2E,4E,6E)}-FSP[NMeA]AP; ester 2-C; configuration not given here)
- MIC [2]: 16 µg/mL (≈ 22.7 µM)
- Zone diameter ([3]; 30 mcg./disc, listed as B): 18 mm. and 26 mm.
- Zone diameter ([3]; 300 mcg./disc, listed as B): 24 mm. and 30 mm.
- activity against a number of anaerobic bacteria [4]: active
- MIC ([5]; agar-dilution, read-out: MIC): 8 µg/mL (≈ 11.4 µM)
- titratable groups [6]: no titratable groups
- Zone diameter ([7]; 30 mcg./disc): 15 mm. and 18 mm.
- Zone diameter ([7]; 300 mcg./disc): 19 mm. and 26 mm.
- MIC ([8]; agar-dilution, read-out: MIC): 8 µg/mL (≈ 11.4 µM)
- Zone diameter ([9]; 30 mcg./disc): 23 mm.
- Zone diameter ([9]; 300 mcg./disc): 27 mm.
- zone of inhibition at 300 µg/disc ([9]; 300 mcg./disc, read-out: Zone diameter): 30 mm
- zone of inhibition at 30 µg/disc [9]: 22 mm
- Zone diameter ([10]; 30 mcg./disc): 25 mm.
- Zone diameter ([10]; 30 mcg./disc, listed as B): 20 mm.
- Zone diameter ([10]; 300 mcg./disc): 32 mm.
- Zone diameter ([10]; 300 mcg./disc, listed as B): 35 mm.
- MIC ([11]; agar-dilution, read-out: MIC): 8 µg/mL (≈ 11.4 µM)
- in vivo antimicrobial activity against experimental bacterial infections [12]: have shown in vivo antimicrobial activity
- MIC ([13]; agar-dilution, read-out: MIC): 32 µg/mL (≈ 45.4 µM)
- MIC [14]: 16 µg/mL (≈ 22.7 µM)
- MIC [15]: > 128 µg/mL
- MIC [16]: > 128 µg/mL
- MIC [17]: > 128 µg/mL
- MIC [18]: > 128 µg/mL
- MIC [19]: 16 µg/mL (≈ 22.7 µM)
- MIC [20]: > 128 µg/mL
- MIC [21]: 16 µg/mL (≈ 22.7 µM)
- MIC [22]: 16 µg/mL (≈ 22.7 µM)
- MIC [23]: > 128 µg/mL
- MIC [24]: 32 µg/mL (≈ 45.4 µM)
- MIC [25]: 16 µg/mL (≈ 22.7 µM)
- MIC ([26]; agar-dilution, read-out: MIC): 8 µg/mL (≈ 11.4 µM)
- Zone diameter ([27]; 30 mcg./disc): 18 mm. and 20 mm.
- Zone diameter ([27]; 300 mcg./disc): 26 mm.
- Zone diameter ([28]; 30 mcg./disc, listed as B): 13 mm. and 16 mm.
- Zone diameter ([28]; 300 mcg./disc, listed as B): 21 mm. and 27 mm.
- MIC [29]: > 128 µg/mL
- ED50 [30]: > 70 mg/kg

SMILES: CCC/C=C/C=C/C(=O)NC(Cc1ccccc1)C(=O)NC1COC(=O)C2CCCN2C(=O)C(C)NC(=O)C(C)N(C)C(=O)C2CC(C)CN2C1=O (stereo not shown) [Factor D] (X2-FS[ξPro(4ξ-Me)][NMeA]AP; ester 2-C; configuration not given here)
- MIC [2]: > 128 µg/mL
- Zone diameter ([3]; 30 mcg./disc): 24 mm.
- Zone diameter ([3]; 300 mcg./disc): 32 mm.
- activity against a number of anaerobic bacteria [4]: active
- MIC [5]: 128 µg/mL (≈ 178 µM)
- titratable groups [6]: no titratable groups
- Zone diameter ([7]; 30 mcg./disc): 27 mm.
- Zone diameter ([7]; 300 mcg./disc): 28 mm.
- MIC [8]: > 128 µg/mL
- zone of inhibition at 30 µg/disc [9]: 26 mm
- zone of inhibition at 300 µg/disc ([9]; read-out: Zone diameter, 300 mcg./disc): 33 mm
- Zone diameter ([10]; 30 mcg./disc): 30 mm.
- Zone diameter ([10]; 300 mcg./disc): 34 mm.
- MIC [11]: > 128 µg/mL
- in vivo antimicrobial activity against experimental bacterial infections [12]: have shown in vivo antimicrobial activity
- MIC [13]: > 128 µg/mL
- MIC [14]: > 128 µg/mL
- MIC [15]: > 128 µg/mL
- MIC [16]: > 128 µg/mL
- MIC [17]: > 128 µg/mL
- MIC [18]: > 128 µg/mL
- MIC [19]: > 128 µg/mL
- MIC [20]: > 128 µg/mL
- MIC [21]: > 128 µg/mL
- MIC [22]: > 128 µg/mL
- MIC [23]: > 128 µg/mL
- MIC [24]: > 128 µg/mL
- MIC [25]: > 128 µg/mL
- MIC [26]: 128 µg/mL (≈ 178 µM)
- Zone diameter ([27]; 30 mcg./disc): 29 mm.
- Zone diameter ([27]; 300 mcg./disc): 30 mm.
- Zone diameter ([28]; 30 mcg./disc): 25 mm.
- Zone diameter ([28]; 300 mcg./disc): 34 mm.
- MIC [29]: > 128 µg/mL
- ED50 [30]: > 70 mg/kg

SMILES: CO[C@@H]1[C@@H](OC(N)=O)[C@@H](O)[C@H](Oc2ccc3c(O)c(NC(=O)c4ccc(O)c(CC=C(C)C)c4)c(=O)oc3c2C)OC1(C)C [Novobiocin]
- Antibiotic Sensitivity of Culture A54556 ([1]; 30 mcg. disc): +

SMILES: CO[C@H]1/C=C/O[C@@]2(C)Oc3c(C)c(O)c4c(O)c(c(/C=N/N5CCN(C)CC5)c(O)c4c3C2=O)NC(=O)/C(C)=C\C=C\[C@H](C)[C@H](O)[C@@H](C)[C@@H](O)[C@@H](C)[C@H](OC(C)=O)[C@@H]1C [Rifampin]
- Antibiotic Sensitivity of Culture A54556 ([1]; 5 mcg. disc): +

SMILES: [H]/N=C(/N)N[C@H]1[C@H](O)[C@@H](O)[C@H](O[C@@H]2O[C@@H](C)[C@](O)(C=O)[C@H]2O[C@@H]2O[C@@H](CO)[C@H](O)[C@@H](O)[C@@H]2NC)[C@@H](N/C(N)=N\[H])[C@@H]1O [Streptomycin]
- Antibiotic Sensitivity of Culture A54556 ([1]; 10 mcg. disc): +

SMILES: CN(C)C1C(=O)C(C(N)=O)=C(O)C2(O)C(=O)C3=C(O)c4c(O)cccc4C(C)(O)C3CC12 (stereo not shown) [Tetracycline]
- Antibiotic Sensitivity of Culture A54556 ([1]; 30 mcg. disc): +

SMILES: CN[C@H](CC(C)C)C(=O)N[C@H]1C(=O)N[C@@H](CC(N)=O)C(=O)N[C@H]2C(=O)N[C@H]3C(=O)N[C@H](C(=O)N[C@H](C(=O)O)c4cc(O)cc(O)c4-c4cc3ccc4O)[C@H](O)c3ccc(c(Cl)c3)Oc3cc2cc(c3O[C@@H]2O[C@H](CO)[C@@H](O)[C@H](O)[C@H]2O[C@H]2C[C@](C)(N)[C@H](O)[C@H](C)O2)Oc2ccc(cc2Cl)[C@H]1O [Vancomycin]
- Antibiotic Sensitivity of Culture A54556 ([1]; 30 mcg. disc): +
